Where “and” joins values, the source holds several entries; their conditions need not be identical. Equal entries are not always repeated. Toxic doses and inconclusive results are not listed. How the source made its calls: active means survival T/C of 150% or more; inactive means T/C below 125% in these data.
Tested on: P388 leukemia ip, CD2F1 mice, survival T/C
Assay: NCI In Vivo Anticancer Drug Screen. Data for tumor model P388 Leukemia (intraperitoneal) in CD2F1 (CDF1) mice
Settings: endpoint: median survival time, higher = longer survival
Summary of the method: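 Mice carrying the transplanted tumor received test compound or vehicle. Survival was recorded in each group, and the value is the treated-group measurement divided by that of the vehicle-treated control group.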

[1] = dose: 12.5 mg/kg/injection, schedule: Q01DX005 (ip), vehicle: saline with Tween-80
[2] = dose: 25.0 mg/kg/injection, schedule: Q01DX005 (ip), vehicle: saline with Tween-80
[3] = dose: 50.0 mg/kg/injection, schedule: Q01DX005 (ip), vehicle: saline with Tween-80
[4] = dose: 100.0 mg/kg/injection, schedule: Q04DX003 (ip), vehicle: saline
[5] = dose: 200.0 mg/kg/injection, schedule: Q04DX003 (ip), vehicle: saline
[6] = dose: 400.0 mg/kg/injection, schedule: Q04DX003 (ip), vehicle: saline
[7] = dose: 100.0 mg/kg/injection, schedule: Q01DX005 (ip), vehicle: saline with Tween-80
[8] = dose: 200.0 mg/kg/injection, schedule: Q01DX005 (ip), vehicle: saline with Tween-80
[9] = dose: 50.0 mg/kg/injection, schedule: Q01DX005 (ip), vehicle: saline
[10] = dose: 100.0 mg/kg/injection, schedule: Q01DX005 (ip), vehicle: saline
[11] = dose: 25.0 mg/kg/injection, schedule: Q01DX009 (ip), vehicle: saline with Tween-80
[12] = dose: 50.0 mg/kg/injection, schedule: Q01DX009 (ip), vehicle: saline with Tween-80
[13] = dose: 50.0 mg/kg/injection, schedule: Q01DX005 (ip), vehicle: Klucel (hydroxypropylcellulose) (HPC)
[14] = dose: 50.0 mg/kg/injection, schedule: Q01DX009 (ip), vehicle: saline
[15] = dose: 100.0 mg/kg/injection, schedule: Q01DX009 (ip), vehicle: saline
[16] = dose: 100.0 mg/kg/injection, schedule: Q01DX005 (ip), vehicle: Klucel (hydroxypropylcellulose) (HPC)
[17] = dose: 200.0 mg/kg/injection, schedule: Q01DX005 (ip), vehicle: Klucel (hydroxypropylcellulose) (HPC)

Measured: T/C

O=C(Nc1cc(Cl)ccc1C(=O)O)c1cccc(C[n+]2ccccc2)c1
inactive: [1] 91 % of control | [2] 102 % of control | [3] 102 % of control

CCCCN(C(C)=O)c1nc2ccccc2n1C
inactive: [4] 97 % of control | [5] 98 % of control | [6] 95 % of control

[NH-]c1ccccc1[S-].[NH-]c1ccccc1[S-].[Zn]
inactive: [4] 98 % of control | [5] 95 % of control | [6] 95 % of control

CC(=O)OCC1OC(OC(C)=O)C(NC(=O)C(C)NC(=O)OCc2ccccc2)C(OC(C)=O)C1OC(C)=O (stereo not given)
inactive: dose: 12.5 mg/kg/injection, schedule: Q01DX009 (ip), vehicle: other 99 % of control | dose: 25.0 mg/kg/injection, schedule: Q01DX009 (ip), vehicle: other 104 % of control | dose: 50.0 mg/kg/injection, schedule: Q01DX009 (ip), vehicle: other 113 % of control | dose: 100.0 mg/kg/injection, schedule: Q01DX009 (ip), vehicle: other 104 % of control | dose: 200.0 mg/kg/injection, schedule: Q01DX009 (ip), vehicle: other 92 % of control

c1ccc2c(c1)c1cccc3sc4cccc2c4c31
inactive: [3] 99 % of control | [7] 96 % of control | [8] 92 % of control

S=C(NCc1ccccc1)NNc1nnc(-c2ccccc2)c(-c2ccccc2)n1
inactive: [1] 96 % of control | [2] 94 % of control | [3] 91 % of control

CCC1(c2ccnc3cc(Cl)ccc23)C(=O)NC(=O)NC1=O
inactive: dose: 50.0 mg/kg/injection, schedule: Q01DX009 (ip), vehicle: distilled water + alcohol 100 % of control | dose: 100.0 mg/kg/injection, schedule: Q01DX009 (ip), vehicle: distilled water + alcohol 98 % of control | dose: 200.0 mg/kg/injection, schedule: Q01DX009 (ip), vehicle: distilled water + alcohol 99 % of control

CNc1cn(C2OC(CO)C(O)C2O)c(=O)[nH]c1=O (stereo not given)
inactive: [9] 122 % of control | [10] 110 % of control | dose: 200.0 mg/kg/injection, schedule: Q01DX005 (ip), vehicle: saline 105 % of control

O=C1CCCN1.O=C1CCCN1.[Br][Co][Br]
inactive: [11] 104 % of control | [12] 122 % of control

CN(C)CCNc1ccc(N)c2sc3ccccc3c(=O)c12
inactive: [11] 99 % of control and 92 % of control | [12] 100 % of control and 112 % of control and 93 % of control | dose: 100.0 mg/kg/injection, schedule: Q01DX009 (ip), vehicle: saline with Tween-80 112 % of control and 121 % of control

O=C1CCOc2cccc(c2)OCCC(=O)OCCCOC(=O)CCOc2cccc(c2)OCCC(=O)OCCCO1
inactive: dose: 12.5 mg/kg/injection, schedule: Q01DX005 (ip), vehicle: saline 103 % of control | dose: 25.0 mg/kg/injection, schedule: Q01DX005 (ip), vehicle: saline 107 % of control | [13] 96 % of control | [9] 98 % of control

[Cl][Ge]([Cl])([Cl])[c]1ccccc1
inactive: [14] 100 % of control | [15] 100 % of control

NC(=S)N/N=C/c1c(-c2ccc(Cl)cc2)nc2sccn12
inactive: dose: 100.0 mg/kg/injection, schedule: Q01DX001 (ip), vehicle: Klucel (hydroxypropylcellulose) (HPC) 96 % of control | dose: 200.0 mg/kg/injection, schedule: Q01DX001 (ip), vehicle: Klucel (hydroxypropylcellulose) (HPC) 95 % of control | dose: 400.0 mg/kg/injection, schedule: Q01DX001 (ip), vehicle: Klucel (hydroxypropylcellulose) (HPC) 96 % of control

O=C(NC(Cc1ccccc1)C(=O)O)C(=O)c1c[nH]c2ccc(Cl)cc12 (stereo not given)
inactive: dose: 60.0 mg/kg/injection, schedule: Q01DX005 (ip), vehicle: saline with Tween-80 100 % of control | dose: 120.0 mg/kg/injection, schedule: Q01DX005 (ip), vehicle: saline with Tween-80 96 % of control | dose: 240.0 mg/kg/injection, schedule: Q01DX005 (ip), vehicle: saline with Tween-80 94 % of control

O=c1c(CCl)c(-c2ccc([N+](=O)[O-])cc2)sc2ccccc12
inactive: dose: 100.0 mg/kg/injection, schedule: Q04DX002 (ip), vehicle: saline with Tween-80 100 % of control | dose: 200.0 mg/kg/injection, schedule: Q04DX002 (ip), vehicle: saline with Tween-80 98 % of control | dose: 400.0 mg/kg/injection, schedule: Q04DX002 (ip), vehicle: saline with Tween-80 92 % of control

CC1(C)CC(C)(C)[P+]1(C)c1ccccc1
inactive: dose: 25.0 mg/kg/injection, schedule: Q01DX001 (ip), vehicle: saline 107 % of control | dose: 50.0 mg/kg/injection, schedule: Q01DX001 (ip), vehicle: saline 103 % of control

NC1C[S][Sn][O]C1=O (stereo not given)
inactive: dose: 100.0 mg/kg/injection, schedule: Q04DX003 (ip), vehicle: saline with Tween-80 111 % of control | dose: 200.0 mg/kg/injection, schedule: Q04DX003 (ip), vehicle: saline with Tween-80 109 % of control

C=C(CC)C(=O)OCC
inactive: [14] 95 % of control | [15] 102 % of control | dose: 200.0 mg/kg/injection, schedule: Q01DX009 (ip), vehicle: saline 104 % of control

CC(C)=CCC(O)C1=CC(=O)c2c(O)ccc(O)c2C1=O (stereo not given)
inactive: dose: 0.5 mg/kg/injection, schedule: Q01DX009 (ip), vehicle: saline with Tween-80 102 % of control | dose: 1.0 mg/kg/injection, schedule: Q01DX009 (ip), vehicle: saline with Tween-80 110 % of control | dose: 1.25 mg/kg/injection, schedule: Q01DX009 (ip), vehicle: Klucel (hydroxypropylcellulose) (HPC) 107 % of control and 109 % of control and 110 % of control | dose: 2.0 mg/kg/injection, schedule: Q01DX009 (ip), vehicle: saline with Tween-80 110 % of control | dose: 2.5 mg/kg/injection, schedule: Q01DX009 (ip), vehicle: Klucel (hydroxypropylcellulose) (HPC) 107 % of control and 108 % of control and 112 % of control | dose: 2.5 mg/kg/injection, schedule: Q01DX009 (ip), vehicle: saline with Tween-80 102 % of control | dose: 5.0 mg/kg/injection, schedule: Q01DX009 (ip), vehicle: Klucel (hydroxypropylcellulose) (HPC) 117 % of control and 120 % of control | dose: 5.0 mg/kg/injection, schedule: Q01DX009 (ip), vehicle: saline with Tween-80 108 % of control | dose: 10.0 mg/kg/injection, schedule: Q01DX009 (ip), vehicle: Klucel (hydroxypropylcellulose) (HPC) 110 % of control and 120 % of control | dose: 15.0 mg/kg/injection, schedule: Q01DX009 (ip), vehicle: saline with Tween-80 100 % of control | dose: 15.0 mg/kg/injection, schedule: Q04DX003 (ip), vehicle: saline with Tween-80 100 % of control | dose: 30.0 mg/kg/injection, schedule: Q01DX009 (ip), vehicle: saline with Tween-80 90 % of control | dose: 30.0 mg/kg/injection, schedule: Q04DX003 (ip), vehicle: saline with Tween-80 109 % of control | [3] 97 % of control | [7] 91 % of control | [8] 99 % of control

CC(Cl)CNCC(C)(C)C (stereo not given)
inactive: [9] 100 % of control | [10] 99 % of control

COc1ccc(/C(C#N)=C/c2cccs2)cc1
inactive: dose: 50.0 mg/kg/injection, schedule: Q01DX009 (ip), vehicle: Klucel (hydroxypropylcellulose) (HPC) 111 % of control | dose: 100.0 mg/kg/injection, schedule: Q01DX009 (ip), vehicle: Klucel (hydroxypropylcellulose) (HPC) 102 % of control | dose: 200.0 mg/kg/injection, schedule: Q01DX009 (ip), vehicle: Klucel (hydroxypropylcellulose) (HPC) 104 % of control

COc1cc(/C=C/C(C)=N/NC(N)=S)cc(OC)c1OC
inactive: dose: 3.75 mg/kg/injection, schedule: Q01DX005 (ip), vehicle: Klucel (hydroxypropylcellulose) (HPC) 102 % of control | dose: 7.5 mg/kg/injection, schedule: Q01DX005 (ip), vehicle: Klucel (hydroxypropylcellulose) (HPC) 105 % of control | dose: 15.0 mg/kg/injection, schedule: Q01DX005 (ip), vehicle: Klucel (hydroxypropylcellulose) (HPC) 99 % of control | dose: 30.0 mg/kg/injection, schedule: Q01DX005 (ip), vehicle: Klucel (hydroxypropylcellulose) (HPC) 90 % of control and 94 % of control

O=C(O)C1NCCC1Oc1ccccc1 (stereo not given)
inactive: [13] 99 % of control | [16] 104 % of control | [17] 100 % of control

CC(CCc1nc2ccccc2[nH]1)c1nc2ccccc2[nH]1 (stereo not given)
inactive: dose: 25.0 mg/kg/injection, schedule: Q01DX005 (ip), vehicle: Klucel (hydroxypropylcellulose) (HPC) 92 % of control | [13] 94 % of control | [16] 91 % of control | [17] 91 % of control
